Source: publication PMC6499206, “Quantification of Volatile Metabolites Derived From Garlic (Allium sativum) in Human Urine” (Frontiers in Nutrition, 2019)

Experiment: Quantification of garlic-derived metabolites in human urine after ingestion of 3 g raw garlic (SIDA, SAFE, HRGC-MS / HRGC-GC-MS)
Type: in vivo
Parameters: metabolite in urine related to creatinine: unit not given here
Conditions: for metabolite concentration in urine / metabolite concentration in urine, creatinine-normalized / highest detected concentration of the sample series: 3 g raw garlic; for highest detected concentration of the sample series: same bulb
Summary of the method: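 Quantification used stable isotope dilution (²H3-AMS, -AMSO, -AMSO2 standards), SAFE distillation at 50°C of DCM-treated urine, and GC-MS on a DB-FFAP column, with creatinine from the Jaffé reaction at 492 nm. Urine came from 18 volunteers avoiding sulfur-rich foods, sampled before and up to 24 h after eating 3 g raw garlic.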

C=CC[S+](C)[O-] (stereo not shown) [AMSO, allyl methyl sulfoxide]
metabolite concentration in urine (U VII, 1 h post (1.08 h)): 239.4 µg/kg | metabolite concentration in urine, creatinine-normalized (U VII, 1 h post (1.08 h)): 148.3 µg/mmol creatinine | metabolite concentration in urine (U VII, 2 h post (2.00 h)): 158.6 µg/kg | metabolite concentration in urine, creatinine-normalized (U VII, 2 h post (2.00 h)): 162.5 µg/mmol creatinine | metabolite concentration in urine (U VII, 4 h post (4.00 h)): 145.1 µg/kg | metabolite concentration in urine, creatinine-normalized (U VII, 4 h post (4.00 h)): 90.0 µg/mmol creatinine | metabolite concentration in urine (U VII, 6 h post (6.00 h)): 123.7 µg/kg | metabolite concentration in urine, creatinine-normalized (U VII, 6 h post (6.00 h)): 40.0 µg/mmol creatinine | metabolite concentration in urine (U VII, 8 h post (8.00 h)): 58.6 µg/kg | metabolite concentration in urine, creatinine-normalized (U VII, 8 h post (8.00 h)): 30.1 µg/mmol creatinine | metabolite concentration in urine (U VII, 24 h post (24.00 h)): 5.9 µg/kg | metabolite concentration in urine, creatinine-normalized (U VII, 24 h post (24.00 h)): 1.6 µg/mmol creatinine | metabolite concentration in urine (U VII, pre (-0.25 h)): 3.4 µg/kg | metabolite concentration in urine, creatinine-normalized (U VII, pre (-0.25 h)): 1.0 µg/mmol creatinine | metabolite concentration in urine (U VIII, 0.5 h post (0.52 h)): 184.6 µg/kg | metabolite concentration in urine, creatinine-normalized (U VIII, 0.5 h post (0.52 h)): 234.8 µg/mmol creatinine | metabolite concentration in urine (U VIII, 1 h post (1.08 h)): 423.9 µg/kg | metabolite concentration in urine, creatinine-normalized (U VIII, 1 h post (1.08 h)): 255.5 µg/mmol creatinine | metabolite concentration in urine (U VIII, 2 h post (2.08 h)): 293.8 µg/kg | metabolite concentration in urine, creatinine-normalized (U VIII, 2 h post (2.08 h)): 277.9 µg/mmol creatinine | metabolite concentration in urine (U VIII, 4 h post (4.07 h)): 239.2 µg/kg | metabolite concentration in urine, creatinine-normalized (U VIII, 4 h post (4.07 h)): 113.3 µg/mmol creatinine | metabolite concentration in urine (U VIII, 6 h post (6.08 h)): 197.8 µg/kg | metabolite concentration in urine, creatinine-normalized (U VIII, 6 h post (6.08 h)): 52.6 µg/mmol creatinine | metabolite concentration in urine (U VIII, 8 h post (7.90 h)): 109.7 µg/kg | metabolite concentration in urine, creatinine-normalized (U VIII, 8 h post (7.90 h)): 40.0 µg/mmol creatinine | metabolite concentration in urine (U VIII, 24 h post (23.83 h)): 26.2 µg/kg | metabolite concentration in urine, creatinine-normalized (U VIII, 24 h post (23.83 h)): 9.9 µg/mmol creatinine | metabolite concentration in urine (U VIII, pre (-0.33 h)): 61.4 µg/kg | metabolite concentration in urine, creatinine-normalized (U VIII, pre (-0.33 h)): 13.8 µg/mmol creatinine | metabolite concentration in urine (U X, 0.5 h post (0.53 h)): 73.7 µg/kg | metabolite concentration in urine, creatinine-normalized (U X, 0.5 h post (0.53 h)): 38.2 µg/mmol creatinine | metabolite concentration in urine (U X, 1 h post (1.03 h)): 77.0 µg/kg | metabolite concentration in urine, creatinine-normalized (U X, 1 h post (1.03 h)): 97.5 µg/mmol creatinine | metabolite concentration in urine (U X, 2 h post (2.03 h)): 68.8 µg/kg | metabolite concentration in urine, creatinine-normalized (U X, 2 h post (2.03 h)): 102.4 µg/mmol creatinine | metabolite concentration in urine (U X, 4 h post (3.85 h)): 68.2 µg/kg | metabolite concentration in urine, creatinine-normalized (U X, 4 h post (3.85 h)): 51.9 µg/mmol creatinine | metabolite concentration in urine (U X, 6 h post (5.80 h)): 68.6 µg/kg | metabolite concentration in urine, creatinine-normalized (U X, 6 h post (5.80 h)): 29.1 µg/mmol creatinine | metabolite concentration in urine (U X, 8 h post (7.75 h)): 37.9 µg/kg | metabolite concentration in urine, creatinine-normalized (U X, 8 h post (7.75 h)): 16.3 µg/mmol creatinine | metabolite concentration in urine (U X, 24 h post (23.97 h)): 23.9 µg/kg | metabolite concentration in urine, creatinine-normalized (U X, 24 h post (23.97 h)): 2.2 µg/mmol creatinine | metabolite concentration in urine (U X, pre (-0.07 h)): < LOD^2 | metabolite concentration in urine, creatinine-normalized (U X, pre (-0.07 h)): < LOD^2 | metabolite concentration in urine (U XI, 0.5 h post (0.50 h)): 64.0 µg/kg | metabolite concentration in urine, creatinine-normalized (U XI, 0.5 h post (0.50 h)): 77.5 µg/mmol creatinine | metabolite concentration in urine (U XI, 1 h post (1.02 h)): 106.2 µg/kg | metabolite concentration in urine, creatinine-normalized (U XI, 1 h post (1.02 h)): 133.3 µg/mmol creatinine | metabolite concentration in urine (U XI, 2 h post (2.00 h)): 102.2 µg/kg | metabolite concentration in urine, creatinine-normalized (U XI, 2 h post (2.00 h)): 133.3 µg/mmol creatinine | metabolite concentration in urine (U XI, pre (-0.08 h)): 3.8 µg/kg | metabolite concentration in urine, creatinine-normalized (U XI, pre (-0.08 h)): 1.1 µg/mmol creatinine | metabolite concentration in urine (U XII, 0.5 h post (0.48 h)): 83.8 µg/kg | metabolite concentration in urine, creatinine-normalized (U XII, 0.5 h post (0.48 h)): 11.2 µg/mmol creatinine | metabolite concentration in urine (U XII, 1 h post (1.03 h)): 82.1 µg/kg | metabolite concentration in urine, creatinine-normalized (U XII, 1 h post (1.03 h)): 83.2 µg/mmol creatinine | metabolite concentration in urine (U XII, 2 h post (1.85 h)): 72.2 µg/kg | metabolite concentration in urine, creatinine-normalized (U XII, 2 h post (1.85 h)): 108.2 µg/mmol creatinine | metabolite concentration in urine (U XII, 4 h post (3.80 h)): 84.6 µg/kg | metabolite concentration in urine, creatinine-normalized (U XII, 4 h post (3.80 h)): 31.9 µg/mmol creatinine | metabolite concentration in urine (U XII, 6 h post (5.82 h)): 61.6 µg/kg | metabolite concentration in urine, creatinine-normalized (U XII, 6 h post (5.82 h)): 10.8 µg/mmol creatinine | metabolite concentration in urine (U XII, 8 h post (7.82 h)): 28.7 µg/kg | metabolite concentration in urine, creatinine-normalized (U XII, 8 h post (7.82 h)): 10.1 µg/mmol creatinine | metabolite concentration in urine (U XII, 24 h post (23.92 h)): 11.3 µg/kg | metabolite concentration in urine, creatinine-normalized (U XII, 24 h post (23.92 h)): 0.8 µg/mmol creatinine | metabolite concentration in urine (U XII, pre (-0.08 h)): 3.9 µg/kg | metabolite concentration in urine, creatinine-normalized (U XII, pre (-0.08 h)): 0.2 µg/mmol creatinine | metabolite concentration in urine (U XIII, 0.5 h post (0.42 h)): 38.0 µg/kg | metabolite concentration in urine, creatinine-normalized (U XIII, 0.5 h post (0.42 h)): 23.8 µg/mmol creatinine | metabolite concentration in urine (U XIII, 1 h post (0.92 h)): 216.6 µg/kg | metabolite concentration in urine, creatinine-normalized (U XIII, 1 h post (0.92 h)): 87.7 µg/mmol creatinine | metabolite concentration in urine (U XIII, 2 h post (1.92 h)): 197.5 µg/kg | metabolite concentration in urine, creatinine-normalized (U XIII, 2 h post (1.92 h)): 57.1 µg/mmol creatinine | metabolite concentration in urine (U XIII, 4 h post (3.92 h)): 105.6 µg/kg | metabolite concentration in urine, creatinine-normalized (U XIII, 4 h post (3.92 h)): 22.5 µg/mmol creatinine | metabolite concentration in urine (U XIII, 6 h post (5.92 h)): 42.9 µg/kg | metabolite concentration in urine, creatinine-normalized (U XIII, 6 h post (5.92 h)): 3.7 µg/mmol creatinine | metabolite concentration in urine (U XIII, 8 h post (7.92 h)): 2.6 µg/kg | metabolite concentration in urine, creatinine-normalized (U XIII, 8 h post (7.92 h)): 0.3 µg/mmol creatinine | metabolite concentration in urine (U XIII, 24 h post (23.92 h)): 2.6 µg/kg | metabolite concentration in urine, creatinine-normalized (U XIII, 24 h post (23.92 h)): 0.3 µg/mmol creatinine | metabolite concentration in urine (U XIII, pre (-0.08 h)): < LOD^2 | metabolite concentration in urine, creatinine-normalized (U XIII, pre (-0.08 h)): < LOD^2 | variation factor of the concentration maxima between test persons (Urine XIII-XVI, highest vs lowest maximum): up to 3.0 | highest detected concentration of the sample series (Urine XIII): 87.7 μg/mmol creatinine | highest detected concentration of the sample series (Urine XIV (AMS: printed Urine UIV)): 84.7 μg/mmol creatinine | highest detected concentration of the sample series (Urine XV): 150.4 μg/mmol creatinine | highest detected concentration of the sample series (Urine XVI): 50.1 μg/mmol creatinine | metabolite in urine related to creatinine (urine set U XIX, 0.5 h post (0.50 h), garlic 3.1133 g): 15.1 | metabolite in urine related to creatinine (urine set U XIX, 1 h post (1.00 h), garlic 3.1133 g): 68.8 | metabolite in urine related to creatinine (urine set U XIX, 2 h post (2.00 h), garlic 3.1133 g): 70.6 | metabolite in urine related to creatinine (urine set U XIX, 4 h post (4.00 h), garlic 3.1133 g): 27.0 | metabolite in urine related to creatinine (urine set U XIX, 6 h post (6.20 h), garlic 3.1133 g): 9.8 | metabolite in urine related to creatinine (urine set U XIX, 8 h post (7.93 h), garlic 3.1133 g): 5.9 | metabolite in urine related to creatinine (urine set U XIX, 24 h post (23.98 h), garlic 3.1133 g): 0.2 | metabolite in urine related to creatinine (urine set U XIX, pre (-0.07 h), garlic 3.1133 g): < LOD^2 | metabolite in urine related to creatinine (urine set U XVII, 0.5 h post (0.58 h), garlic 3.1559 g): 0.8 | metabolite in urine related to creatinine (urine set U XVII, 1 h post (1.00 h), garlic 3.1559 g): 10.7 | metabolite in urine related to creatinine (urine set U XVII, 2 h post (2.17 h), garlic 3.1559 g): 27.6 | metabolite in urine related to creatinine (urine set U XVII, 4 h post (4.00 h), garlic 3.1559 g): 15.5 | metabolite in urine related to creatinine (urine set U XVII, 6 h post (6.08 h), garlic 3.1559 g): 1.2 | metabolite in urine related to creatinine (urine set U XVII, 8 h post (8.00 h), garlic 3.1559 g): 1.8 | metabolite in urine related to creatinine (urine set U XVII, 24 h post (23.92 h), garlic 3.1559 g): 0.2 | metabolite in urine related to creatinine (urine set U XVII, pre (-0.08 h), garlic 3.1559 g): 0.3 | metabolite in urine related to creatinine (urine set U XVIII, 0.5 h post (0.63 h), garlic 3.1981 g): 44.1 | metabolite in urine related to creatinine (urine set U XVIII, 1 h post (1.05 h), garlic 3.1981 g): 84.8 | metabolite in urine related to creatinine (urine set U XVIII, 2 h post (2.00 h), garlic 3.1981 g): 94.9 | metabolite in urine related to creatinine (urine set U XVIII, 4 h post (3.97 h), garlic 3.1981 g): 50.9 | metabolite in urine related to creatinine (urine set U XVIII, 6 h post (5.97 h), garlic 3.1981 g): 16.6 | metabolite in urine related to creatinine (urine set U XVIII, 8 h post (8.30 h), garlic 3.1981 g): 17.1 | metabolite in urine related to creatinine (urine set U XVIII, 24 h post (24.13 h), garlic 3.1981 g): 0.5 | metabolite in urine related to creatinine (urine set U XVIII, pre (-0.08 h), garlic 3.1981 g): < LOD^2
